Laboratory results from US9593149B2, “Amylin and calcitonin receptor agonist” (Novo Nordisk A/S, priority 2014, dated 2017).
Numbered stars: 1 amine (or outer) side, 2 acyl side, 3 side chain; on linkers, the order of the positions; unused ones are H or OH. Peptide text beside a SMILES is read from it. * marks the point of attachment. C20 diacid = O=C(O)CCCCCCCCCCCCCCCCCCC(=O)*; C18 diacid = O=C(O)CCCCCCCCCCCCCCCCC(=O)*; γGlu = O=C(O)[C@H](CCC(=O)[*:2])N[*:1]; C14 diacid = O=C(O)CCCCCCCCCCCCC(=O)*

Assay: Assay (IV) determination of solubility
Type: physicochemical
Experimental: Assay (IV)—Determination of Solubility
The mimylin peptide was dissolved in water at ˜500 nmol/ml and mixed 1:1 with a series of buffers (100 mM glycylglycine pH 3.0, 100 mM glycylglycine pH 4.0, 100 mM glycylglycine pH 5.0, 100 mM bistrispropane pH 6.0, 100 mM bistrispropane pH 6.5, 100 mM bistrispropane pH 7.0, 100 mM bistrispropane pH 7.5, 100 mM bistrispropane pH 8.0).

Measured: Solubility

CC[C@H](C)[C@H](NC(=O)[C@H](CCC(=O)O)NC(=O)[C@H](Cc1cnc[nH]1)NC(=O)[C@H](CC(C)C)NC(=O)[C@H](CCC(=O)O)NC(=O)[C@H](C)NC(=O)[C@H](CO)NC(=O)[C@H](CC(C)C)NC(=O)[C@H](CCCNC(=N)N)NC(=O)CNC(=O)[C@H](CC(C)C)NC(=O)[C@H](C)NC(=O)[C@H](C)NC(=O)[C@@H](NC(=O)[C@H](CO)NC(=O)[C@H](CC(C)C)NC(=O)[C@H](CCC(=O)O)NC(=O)[C@H](CO)NC(=O)[C@H](C)NC(=O)[C@H](CCC(=O)O)NC(=O)CCCCCCCCCCCCCCCCC(=O)O)[C@@H](C)O)C(=O)N[C@@H](C)C(=O)N[C@H](C(=O)N[C@@H](CC(C)C)C(=O)N1CCC[C@H]1C(=O)N[C@@H](CCCNC(=N)N)C(=O)N[C@H](C(=O)N[C@@H](CCC(=O)O)C(=O)N[C@H](C(=O)NCC(=O)N1CCC[C@H]1C(=O)N[C@@H](CCC(=O)O)C(=O)N[C@@H](CO)C(=O)N1CCC[C@H]1C(N)=O)[C@@H](C)O)[C@@H](C)O)[C@@H](C)O [compound 12, [N-terminal(C18 diacid), 20I]mimylin] ({C18 diacid}-EASELSTAALGRLSAELHEIATLPRTETGPESP-NH2)
≧200 μM: pH 3.0 | pH 4.0 | pH 5.0 | pH 6.0 | pH 6.5 | pH 7.0 | pH 7.5 | pH 8.0

CC(C)C[C@H](NC(=O)[C@H](CCC(=O)O)NC(=O)[C@H](Cc1cnc[nH]1)NC(=O)[C@H](CC(C)C)NC(=O)[C@H](CCC(=O)O)NC(=O)[C@H](C)NC(=O)[C@H](CO)NC(=O)[C@H](CC(C)C)NC(=O)[C@H](CCCNC(=N)N)NC(=O)CNC(=O)[C@H](CC(C)C)NC(=O)[C@@H](NC(=O)[C@H](C)NC(=O)[C@@H](NC(=O)[C@H](CO)NC(=O)[C@H](CC(C)C)NC(=O)[C@H](CCC(=O)O)NC(=O)[C@H](CO)NC(=O)[C@H](C)NC(=O)CC[C@H](NC(=O)CCCCCCCCCCCCCCCCC(=O)O)C(=O)O)[C@@H](C)O)C(C)C)C(=O)N[C@@H](C)C(=O)N[C@H](C(=O)N[C@@H](CC(C)C)C(=O)N1CCC[C@H]1C(=O)N[C@@H](CCCNC(=N)N)C(=O)N[C@H](C(=O)N[C@@H](CCC(=O)O)C(=O)N[C@H](C(=O)NCC(=O)N[C@@H](CO)C(=O)NCC(=O)N[C@@H](CO)C(=O)N1CCC[C@H]1C(N)=O)[C@@H](C)O)[C@@H](C)O)[C@@H](C)O [compound 76, [N-terminal(C18 diacid-gGlu), des1, 9V, 30S, 31G]mimylin] ({C18 diacid-γGlu}-ASELSTAVLGRLSAELHELATLPRTETGSGSP-NH2)
≧200 μM: pH 3.0 | pH 4.0 | pH 5.0 | pH 6.0 | pH 6.5 | pH 7.0 | pH 7.5 | pH 8.0

CC(C)C[C@H](NC(=O)[C@H](C)NC(=O)[C@H](C)NC(=O)[C@@H](NC(=O)[C@H](CO)NC(=O)[C@H](CC(C)C)NC(=O)[C@H](CCC(=O)O)NC(=O)[C@H](CO)NC(=O)[C@H](C)NC(=O)CC[C@H](NC(=O)CCCCCCCCCCCCC(=O)O)C(=O)O)[C@@H](C)O)C(=O)NCC(=O)N[C@@H](CCCNC(=N)N)C(=O)N[C@@H](CC(C)C)C(=O)N[C@@H](CO)C(=O)N[C@@H](C)C(=O)N[C@@H](CCC(=O)O)C(=O)N[C@@H](CC(C)C)C(=O)N[C@@H](Cc1cnc[nH]1)C(=O)N[C@@H](CCC(=O)O)C(=O)N[C@@H](CC(C)C)C(=O)N[C@@H](C)C(=O)N[C@H](C(=O)N[C@@H](CC(C)C)C(=O)N1CCC[C@H]1C(=O)N[C@@H](CCCNC(=N)N)C(=O)N[C@H](C(=O)N[C@@H](CCC(=O)O)C(=O)N[C@H](C(=O)NCC(=O)N1CCC[C@H]1C(=O)N[C@@H](CCC(=O)O)C(=O)N[C@@H](CO)C(=O)N1CCC[C@H]1C(N)=O)[C@@H](C)O)[C@@H](C)O)[C@@H](C)O [compound 19, [N-terminal(C14 diacid-gGlu), des1]mimylin] ({C14 diacid-γGlu}-ASELSTAALGRLSAELHELATLPRTETGPESP-NH2)
≧200 μM: pH 3.0 | pH 4.0 | pH 5.0 | pH 6.0 | pH 6.5 | pH 7.0 | pH 7.5 | pH 8.0

CC(C)C[C@H](NC(=O)[C@H](C)NC(=O)[C@H](C)NC(=O)[C@@H](NC(=O)[C@H](CO)NC(=O)[C@H](CC(C)C)NC(=O)[C@H](CCC(=O)O)NC(=O)[C@H](CO)NC(=O)[C@H](C)NC(=O)CC[C@H](NC(=O)CCCCCCCCCCCCCCCCCCC(=O)O)C(=O)O)[C@@H](C)O)C(=O)NCC(=O)N[C@@H](CCCNC(=N)N)C(=O)N[C@@H](CC(C)C)C(=O)N[C@@H](CO)C(=O)N[C@@H](C)C(=O)N[C@@H](CCC(=O)O)C(=O)N[C@@H](CC(C)C)C(=O)N[C@@H](Cc1cnc[nH]1)C(=O)N[C@@H](CCC(=O)O)C(=O)N[C@@H](CC(C)C)C(=O)N[C@@H](C)C(=O)N[C@H](C(=O)N[C@@H](CC(C)C)C(=O)N1CCC[C@H]1C(=O)N[C@@H](CCCNC(=N)N)C(=O)N[C@H](C(=O)N[C@@H](CCC(=O)O)C(=O)N[C@H](C(=O)NCC(=O)N[C@@H](CO)C(=O)NCC(=O)N[C@@H](CO)C(=O)NCC(N)=O)[C@@H](C)O)[C@@H](C)O)[C@@H](C)O [compound 64, [N-terminal(C20 diacid-gGlu), des1, 30S, 31G, 33G]mimylin] ({C20 diacid-γGlu}-ASELSTAALGRLSAELHELATLPRTETGSGSG-NH2)
≧200 μM: pH 3.0 | pH 4.0 | pH 5.0 | pH 6.0 | pH 6.5 | pH 7.0 | pH 7.5 | pH 8.0

CC(C)C[C@H](NC(=O)[C@H](C)NC(=O)[C@H](C)NC(=O)[C@@H](NC(=O)[C@H](CO)NC(=O)[C@H](CC(C)C)NC(=O)[C@H](CCC(=O)O)NC(=O)[C@H](CO)NC(=O)[C@H](C)NC(=O)CC[C@H](NC(=O)CCCCCCCCCCCCCCCCCCC(=O)O)C(=O)O)[C@@H](C)O)C(=O)NCC(=O)N[C@@H](CCCCN)C(=O)N[C@@H](CC(C)C)C(=O)N[C@@H](CO)C(=O)N[C@@H](C)C(=O)N[C@@H](CCC(=O)O)C(=O)N[C@@H](CC(C)C)C(=O)N[C@@H](Cc1cnc[nH]1)C(=O)N[C@@H](CCC(=O)O)C(=O)N[C@@H](CC(C)C)C(=O)N[C@@H](C)C(=O)N[C@H](C(=O)N[C@@H](Cc1ccc(O)cc1)C(=O)N1CCC[C@H]1C(=O)N[C@@H](CCCCN)C(=O)N[C@H](C(=O)N[C@@H](CCC(=O)O)C(=O)N[C@H](C(=O)NCC(=O)N[C@@H](CO)C(=O)NCC(=O)N[C@@H](CO)C(=O)N[C@@H](Cc1ccc(O)cc1)C(N)=O)[C@@H](C)O)[C@@H](C)O)[C@@H](C)O [compound 101, [N-terminal(C20 diacid-gGlu), des1, 12K, 23Y, 25K, 30S, 31G, 33Y]mimylin] ({C20 diacid-γGlu}-ASELSTAALGKLSAELHELATYPKTETGSGSY-NH2)
≧200 μM: pH 3.0 | pH 4.0 | pH 5.0 | pH 6.0 | pH 6.5 | pH 7.0 | pH 7.5 | pH 8.0

CC(C)C[C@H](NC(=O)[C@H](CCC(=O)O)NC(=O)[C@H](Cc1cnc[nH]1)NC(=O)[C@H](CC(C)C)NC(=O)[C@H](CCC(=O)O)NC(=O)[C@H](C)NC(=O)[C@H](CO)NC(=O)[C@H](CC(C)C)NC(=O)[C@H](CCCNC(=N)N)NC(=O)CNC(=O)[C@H](CC(C)C)NC(=O)[C@@H](NC(=O)[C@H](C)NC(=O)[C@@H](NC(=O)[C@H](CO)NC(=O)[C@H](CC(C)C)NC(=O)[C@@H]1CCCN1C(=O)[C@H](CO)NC(=O)[C@H](C)NC(=O)[C@H](CCC(=O)O)NC(=O)CCCCCCCCCCCCCCCCC(=O)O)[C@@H](C)O)C(C)C)C(=O)N[C@@H](C)C(=O)N[C@H](C(=O)N[C@@H](CC(C)C)C(=O)N1CCC[C@H]1C(=O)N[C@@H](CCCNC(=N)N)C(=O)N[C@H](C(=O)N[C@@H](CCC(=O)O)C(=O)N[C@H](C(=O)NCC(=O)N1CCC[C@H]1C(=O)N[C@@H](CCC(=O)O)C(=O)N[C@@H](CO)C(=O)N1CCC[C@H]1C(N)=O)[C@@H](C)O)[C@@H](C)O)[C@@H](C)O [compound 30, [N-terminal(C18 diacid), 4P, 9V]mimylin] ({C18 diacid}-EASPLSTAVLGRLSAELHELATLPRTETGPESP-NH2)
≧200 μM: pH 3.0 | pH 4.0 | pH 5.0 | pH 6.0 | pH 6.5 | pH 7.0 | pH 7.5 | pH 8.0
